In US9725465B2, “Biaryl acetamide compounds and methods of use thereof” (Ambit Biosciences Corporation, priority 2013, dated 2017) one finds Kd data, which are given here for 11 compounds.

For experiment [1], the target named is FLT3 kinase (Homo sapiens (Human), UniProt P36888). The experiment can be described thus: Competition binding assay (Kd), FLT3. The note with it: competition binding assay.
Protocol: A selectivity score (S35) is a quantitative measure of selectivity of a compound against a panel of kinases. […] Percent of control (POC) is calculated by subtracting the signal of the control compound (POC=0) from the signal of the test compound and dividing the outcome by the signal of DMSO (POC=100) minus the signal of the control compound.
Experiment [2] addresses KIT kinase (Homo sapiens (Human), UniProt P10721). The experiment can be described thus: Competition binding assay (Kd), KIT. The note with it: competition binding assay. The procedure:
In certain embodiments, competition binding assays were performed as described in Fabian et al., Nature Biotechnology 2005, 23, 329-336.
Competition binding assays used herein were developed, validated and performed as described in Fabian et al., Nature Biotechnology 2005, 23, 329-336. Kinases were produced as fusions to T7 phage (See, Fabian et al. or WO04/015142) or alternatively, the kinases were expressed in HEK-293 cells and subsequently tagged with DNA for PCR detection (See, WO08/005,310). […] The liganded beads were blocked with excess biotin and washed with blocking buffer (SeaBlock (Pierce), 1% BSA, 0.05% Tween 20, 1 mM DTT) to remove unbound ligand and to reduce non-specific binding. […] Test compounds were prepared as 100× stocks in DMSO and diluted into the aqueous environment. Kds were determined using an eleven point threefold serial dilutions. DMSO or control compounds were was added to control assays lacking a test compound. […] The kinase concentration in the eluates was measured by quantitative PCR. […]

In general, Kd refers to a measure of binding affinity in units of concentration. Read a high Kd as a looser complex.

SMILES strings stand for the structures.

Sequence of FLT3 kinase (P36888 27-993): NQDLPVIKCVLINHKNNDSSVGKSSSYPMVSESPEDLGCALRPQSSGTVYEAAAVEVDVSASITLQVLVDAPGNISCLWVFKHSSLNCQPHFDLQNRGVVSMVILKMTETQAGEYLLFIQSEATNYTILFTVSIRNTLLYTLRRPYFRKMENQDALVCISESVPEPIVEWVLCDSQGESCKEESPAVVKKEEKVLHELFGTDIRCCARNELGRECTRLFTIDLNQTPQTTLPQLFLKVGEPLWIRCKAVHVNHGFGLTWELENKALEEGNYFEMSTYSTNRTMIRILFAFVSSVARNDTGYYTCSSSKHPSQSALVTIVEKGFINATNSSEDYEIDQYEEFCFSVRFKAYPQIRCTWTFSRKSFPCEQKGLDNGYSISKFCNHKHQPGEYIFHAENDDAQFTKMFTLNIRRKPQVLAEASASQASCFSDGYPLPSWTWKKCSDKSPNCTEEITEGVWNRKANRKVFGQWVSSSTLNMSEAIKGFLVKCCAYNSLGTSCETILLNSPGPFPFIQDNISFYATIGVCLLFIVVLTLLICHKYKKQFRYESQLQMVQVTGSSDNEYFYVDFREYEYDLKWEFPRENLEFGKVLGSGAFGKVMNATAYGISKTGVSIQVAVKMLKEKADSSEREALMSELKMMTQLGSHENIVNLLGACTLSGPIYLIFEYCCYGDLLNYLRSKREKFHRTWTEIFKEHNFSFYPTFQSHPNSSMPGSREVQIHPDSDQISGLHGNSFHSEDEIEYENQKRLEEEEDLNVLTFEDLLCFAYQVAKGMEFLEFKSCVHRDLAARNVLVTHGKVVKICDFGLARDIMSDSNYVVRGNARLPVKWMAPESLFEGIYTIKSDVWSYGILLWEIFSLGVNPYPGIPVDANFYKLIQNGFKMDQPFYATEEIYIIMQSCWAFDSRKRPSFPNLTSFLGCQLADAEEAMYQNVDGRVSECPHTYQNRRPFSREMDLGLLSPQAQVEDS
Sequence of KIT kinase (P10721 26-976): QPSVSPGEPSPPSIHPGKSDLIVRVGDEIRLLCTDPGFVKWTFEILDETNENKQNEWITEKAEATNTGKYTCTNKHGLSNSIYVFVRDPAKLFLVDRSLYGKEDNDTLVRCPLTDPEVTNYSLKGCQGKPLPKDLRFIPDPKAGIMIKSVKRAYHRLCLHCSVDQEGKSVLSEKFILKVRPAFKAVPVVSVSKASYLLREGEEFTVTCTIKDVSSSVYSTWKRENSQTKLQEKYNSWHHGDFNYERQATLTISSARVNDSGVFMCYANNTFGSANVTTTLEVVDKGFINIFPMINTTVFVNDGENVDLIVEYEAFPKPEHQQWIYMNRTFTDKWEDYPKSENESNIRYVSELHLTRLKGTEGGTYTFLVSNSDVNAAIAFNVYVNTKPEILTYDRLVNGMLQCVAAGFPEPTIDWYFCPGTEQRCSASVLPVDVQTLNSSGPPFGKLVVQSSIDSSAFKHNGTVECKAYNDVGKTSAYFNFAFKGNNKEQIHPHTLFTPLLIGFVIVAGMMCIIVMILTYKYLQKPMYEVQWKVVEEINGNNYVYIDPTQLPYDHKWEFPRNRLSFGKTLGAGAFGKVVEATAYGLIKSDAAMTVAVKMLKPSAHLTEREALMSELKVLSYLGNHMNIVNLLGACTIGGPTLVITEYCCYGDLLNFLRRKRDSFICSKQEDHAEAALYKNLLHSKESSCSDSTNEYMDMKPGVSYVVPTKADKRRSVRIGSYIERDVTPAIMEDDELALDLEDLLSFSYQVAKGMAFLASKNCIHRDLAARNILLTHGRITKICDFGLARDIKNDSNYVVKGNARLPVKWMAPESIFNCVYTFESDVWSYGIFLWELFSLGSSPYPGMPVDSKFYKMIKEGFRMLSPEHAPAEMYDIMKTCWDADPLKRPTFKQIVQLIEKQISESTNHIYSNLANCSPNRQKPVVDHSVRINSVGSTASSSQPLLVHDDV

Regarding `COc1cc2ncc(-c3ccc(CC(=O)Nc4cc(C(C)(C)C(F)(F)F)on4)c(F)c3)cc2cc1OCCN1CC[C@H](O)[C@@H](F)C1` (stereo in doubt) [Example 87, 2-(2-Fluoro-4-{6-[2-(3-fluoro-4-hydroxy-piperidin-1-yl)-ethoxy]-7-methoxy-quinolin-3-yl}-phenyl)-N-[5-(2,2,2-trifluoro-1,1-dimethyl-ethyl)-isoxazol-3-yl]-acetamide], the Kd in experiment [1] and in experiment [2] was below 5 nM in each case.
As for `Nc1nc2ccccc2nc1-c1ccc(CC(=O)Nc2cc(C3(C(F)(F)F)CC3)on2)cc1` [Example 7, 2-(4-(3-aminoquinoxalin-2-yl)phenyl)-N-(5-(1-(trifluoromethyl)cyclopropyl)isoxazol-3-yl)acetamide], the dissociation constant Kd in experiment [1] and in experiment [2] was below 5 nM in each case.
Consider `Cn1ccc2ncc(-c3ccc(CC(=O)Nc4cc(C5(C(F)(F)F)CC5)on4)cc3)nc21` [Example 9, 2-(4-(5-methyl-5H-pyrrolo[2,3-b]pyrazin-3-yl)phenyl)-N-(5-(1-(trifluoromethyl)cyclopropyl)isoxazol-3-yl)acetamide], for which the dissociation constant Kd in experiment [1] and in experiment [2] was below 5 nM each time.
Regarding `O=C(Cc1ccc(-c2cnc3ccsc3c2)cc1)Nc1cc(C2(C(F)(F)F)CC2)on1` [Example 10, 2-(4-(thieno[3,2-b]pyridin-6-yl)phenyl)-N-(5-(1-(trifluoromethyl)cyclopropyl)isoxazol-3-yl)acetamide], the dissociation constant (Kd) in experiment [1] and in experiment [2] was below 5 nM each time.
With `O=C(Cc1ccc(-c2cnc3cccnc3c2)cc1)Nc1cc(C2(C(F)(F)F)CC2)on1` [Example 11, 2-(4-(1,5-naphthyridin-3-yl)phenyl)-N-(5-(1-(trifluoromethyl)cyclopropyl)isoxazol-3-yl)acetamide], the dissociation constant Kd in experiment [1] and in experiment [2] was below 5 nM each time.
For the compound `O=C(Cc1ccc(-c2cnc3ccncc3c2)cc1)Nc1cc(C2(C(F)(F)F)CC2)on1` [Example 12, 2-(4-(1,6-naphthyridin-3-yl)phenyl)-N-(5-(1-(trifluoromethyl)cyclopropyl)isoxazol-3-yl)acetamide], the Kd in experiment [1] and in experiment [2] was below 5 nM in each case.
With `COc1cc(OC)c2cc(-c3ccc(CC(=O)Nc4cc(C5(C(F)(F)F)CC5)on4)cc3)cnc2c1` [Example 13, 2-(4-(5,7-dimethoxyquinolin-3-yl)phenyl)-N-(5-(1-(trifluoromethyl)cyclopropyl)isoxazol-3-yl)acetamide], the values for the Kd in experiment [1] and in experiment [2] were below 5 nM and 5 to 20 nM, respectively.
On to `O=C(Cc1ccc(-c2cnc3[nH]cnc3n2)cc1)Nc1cc(C2(C(F)(F)F)CC2)on1` [Example 14, 2-(4-(1H-imidazo[4,5-b]pyrazin-5-yl)phenyl)-N-(5-(1-(trifluoromethyl)cyclopropyl)isoxazol-3-yl)acetamide], for which the Kd in experiment [1] and in experiment [2] was below 5 nM each time.
As to `COc1cc2nc(-c3ccc(CC(=O)Nc4cc(C5(C(F)(F)F)CC5)on4)c(F)c3)cnc2cc1OCCN1CCN(C)CC1` [Example 81, 2-(2-fluoro-4-(7-methoxy-6-(2-(4-methylpiperazin-1-yl)ethoxy)quinoxalin-2-yl)phenyl)-N-(5-(1-(trifluoromethyl)cyclopropyl)isoxazol-3-yl)acetamide], the dissociation constant (Kd) in experiment [1] and in experiment [2] was below 5 nM throughout.
As for `COc1cc2nc(-c3ccc(CC(=O)Nc4cc(C(C)(C)C)on4)c(F)c3)cnc2cc1OCCN1CCOCC1` [Example 92, N-(5-(tert-butyl)isoxazol-3-yl)-2-(2-fluoro-4-(7-methoxy-6-(2-morpholinoethoxy)quinoxalin-2-yl)phenyl)acetamide], in experiment [2], the dissociation constant (Kd) was below 5 nM.
`COc1cc2nc(-c3ccc(CC(=O)Nc4cc(C(C)(C)C(F)(F)F)on4)c(F)c3)cnc2cc1OCCN1CCOCC1` [Example 171, 2-[2-fluoro-4-[7-methoxy-6-(2-morpholino-ethoxy)quinoxalin-2-yl]phenyl]-N-[5-(2,2,2-trifluoro-1,1-dimethyl-ethyl)isoxazol-3-yl]acetamide] gave a Kd in experiment [2] below 5 nM.
